Experimental data as given in ChEMBL document CHEMBL1128972, “Synthesis of pyridinone ribonucleoside 3-O-phosphoramidites and their incorporation into oligoribonucleotides” (Bioorg Med Chem Lett, 1996).

Experiment: Cleavage rate was reported
Format: ADME

K obs	Compound
0.095 min⁻¹	O=c1ccn(C2O[C@H](CO)[C@@H](O)[C@H]2O)cc1 (stereo partly drawn)
2.01 min⁻¹	O=c1ccccn1C1O[C@H](CO)[C@@H](O)[C@H]1O (stereo partly drawn)
1.17 min⁻¹	O=c1ccn([C@@H]2O[C@H](CO)[C@@H](O)[C@H]2O)c(=O)[nH]1 [URIDINE]
